# Experiments:
# Assay type in all cases: in vivo
# [1] = tested on: balloon-injured rat carotid artery; assay: Cell proliferation in injured rat carotid artery, PCNA immunohistochemistry; conditions: 200 μg in pluronic gel suspension, perivascular, seven days post injury
# Method: (§1) The delivery vehicle may comprise any suitable device. In the exemplary embodiment, the delivery vehicle comprises silastic tubing as illustrated in FIG. 1. The silastic tubing 300 is about 10 mm long with an outside diameter of about 1.5 mm. The total luminal volume, based upon emperical measurement, is about 20 μL. It is important to note that the silastic tubing 300 may comprise any suitable length. The length of the tubing is determined by the amount of artery resected. The silastic tubing may comprise a notch 302 on one end to facilitate placement thereof over the carotid artery. The silastic tubing is then autoclaved prior to surgery. The silastic tubing is filled with about 20 μL of the pluronic gel comprising a suspension, solution or combination suspension and solution of test agent. The pluronic gel formulation to be encased within the silastic tubing is dispersed into the silastic tubing utilizing a 20 μL adjustable pipette with a sterile tip. The pluronic vehicle or pluronic drug solution remains on ice until immediately before pipetting and dispensing into the silastic tubing.
# (§2) The next step in the process comprises the surgical procedure. The rat is anesthetized prior to surgical intervention. The rat may be anesthetized utilizing any number of anesthetizing agents, both inhalational and/or injectable. […]
# [2] = tested on: balloon-injured rat carotid artery; assay: Vascular wall cell cycle and apoptotic nuclei in injured rat carotid artery, flow cytometry (propidium iodide); conditions: 200 μg in pluronic gel suspension, perivascular, seven days post injury
# Method: as §1, §2
# [3] = tested on: balloon-injured rat carotid artery; assay: Neointimal hyperplasia in balloon-injured rat carotid artery, histomorphometric analysis after perivascular delivery
# Method: as §1, §2
Structure (SMILES),neointimal proliferation (PCNA labeling) [1],percentage nuclei in the G0/G1 phases [2],total percentage of apoptotic cells in the injured vessel wall [2],"neointima formation (FIG. 3 slides) ([3]; 200 μg in pluronic gel, perivascular administration)",neointimal formation (FIG. 2) ([3]; perivascular application)
CC[C@@]1(O)C(=O)OCc2c1cc1n(c2=O)Cc2cc3c(CN(C)C)c(O)ccc3nc2-1 [Topotecan],substantially no effect,–,–,–,–
CC(=O)O[C@H]1C(=O)[C@@]2(C)[C@H]([C@H](OC(=O)c3ccccc3)[C@]3(O)C[C@H](OC(=O)[C@H](O)[C@@H](NC(=O)c4ccccc4)c4ccccc4)C(C)=C1C3(C)C)[C@]1(OC(C)=O)CO[C@@H]1C[C@@H]2O [paclitaxel],significantly reduce,increases,increase,substantial-reduction,significantly reduced
